# Source: ChEMBL document CHEMBL5120828, “Identification and optimisation of a pyrimidopyridone series of IRAK4 inhibitors” (Bioorg Med Chem, 2022)
# How the values were obtained:
# [1] = Efflux ratio of permeability in human Caco-2 cells; type: ADME, cell-based
# [2] = biological target: T1, Interleukin-1 receptor-associated kinase 4 (Homo sapiens, UniProt Q9NWZ3); assay: Inhibition of IRAK4 in IL1-stimulated human KARPAS-299 cells assessed as fluorescence intensity; type: cell-based
# T1 sequence (Q9NWZ3 whole entry): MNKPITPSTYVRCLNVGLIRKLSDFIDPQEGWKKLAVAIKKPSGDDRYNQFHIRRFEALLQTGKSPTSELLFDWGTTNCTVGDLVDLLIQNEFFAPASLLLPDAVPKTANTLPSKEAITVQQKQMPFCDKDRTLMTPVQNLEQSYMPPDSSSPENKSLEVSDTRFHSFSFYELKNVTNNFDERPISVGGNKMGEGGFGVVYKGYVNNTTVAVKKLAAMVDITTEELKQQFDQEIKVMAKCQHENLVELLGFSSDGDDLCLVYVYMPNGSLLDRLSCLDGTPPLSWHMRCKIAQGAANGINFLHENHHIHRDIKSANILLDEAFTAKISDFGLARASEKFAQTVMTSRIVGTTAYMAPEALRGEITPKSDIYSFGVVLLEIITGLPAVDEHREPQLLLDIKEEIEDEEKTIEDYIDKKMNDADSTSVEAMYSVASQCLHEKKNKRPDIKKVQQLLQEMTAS
# [3] = biological target: T1, Interleukin-1 receptor-associated kinase 4; assay: Inhibition of human recombinant IRAK4 assessed as unphosphorylated KKARFSRFAGSSPSQSSMVAR peptide substrate measured after 2 hrs by LC-MS/MS analysis
# [4] = Octanol/water partition coefficient, logP of compound at pH 7.4 by shake-flask method; type: physicochemical
# [5] = Intrinsic permeability across apical to basolateral side in human Caco-2 cells; type: ADME, cell-based
# [6] = Metabolic stability in human liver microsomes assessed as intrinsic clearance; type: ADME
# [7] = biological target: Voltage-gated inwardly rectifying potassium channel KCNH2 (Homo sapiens, UniProt Q12809); assay: Inhibition of human ERG channel; type: toxicity
# Sequence of Voltage-gated inwardly rectifying potassium channel KCNH2 (Q12809 whole entry): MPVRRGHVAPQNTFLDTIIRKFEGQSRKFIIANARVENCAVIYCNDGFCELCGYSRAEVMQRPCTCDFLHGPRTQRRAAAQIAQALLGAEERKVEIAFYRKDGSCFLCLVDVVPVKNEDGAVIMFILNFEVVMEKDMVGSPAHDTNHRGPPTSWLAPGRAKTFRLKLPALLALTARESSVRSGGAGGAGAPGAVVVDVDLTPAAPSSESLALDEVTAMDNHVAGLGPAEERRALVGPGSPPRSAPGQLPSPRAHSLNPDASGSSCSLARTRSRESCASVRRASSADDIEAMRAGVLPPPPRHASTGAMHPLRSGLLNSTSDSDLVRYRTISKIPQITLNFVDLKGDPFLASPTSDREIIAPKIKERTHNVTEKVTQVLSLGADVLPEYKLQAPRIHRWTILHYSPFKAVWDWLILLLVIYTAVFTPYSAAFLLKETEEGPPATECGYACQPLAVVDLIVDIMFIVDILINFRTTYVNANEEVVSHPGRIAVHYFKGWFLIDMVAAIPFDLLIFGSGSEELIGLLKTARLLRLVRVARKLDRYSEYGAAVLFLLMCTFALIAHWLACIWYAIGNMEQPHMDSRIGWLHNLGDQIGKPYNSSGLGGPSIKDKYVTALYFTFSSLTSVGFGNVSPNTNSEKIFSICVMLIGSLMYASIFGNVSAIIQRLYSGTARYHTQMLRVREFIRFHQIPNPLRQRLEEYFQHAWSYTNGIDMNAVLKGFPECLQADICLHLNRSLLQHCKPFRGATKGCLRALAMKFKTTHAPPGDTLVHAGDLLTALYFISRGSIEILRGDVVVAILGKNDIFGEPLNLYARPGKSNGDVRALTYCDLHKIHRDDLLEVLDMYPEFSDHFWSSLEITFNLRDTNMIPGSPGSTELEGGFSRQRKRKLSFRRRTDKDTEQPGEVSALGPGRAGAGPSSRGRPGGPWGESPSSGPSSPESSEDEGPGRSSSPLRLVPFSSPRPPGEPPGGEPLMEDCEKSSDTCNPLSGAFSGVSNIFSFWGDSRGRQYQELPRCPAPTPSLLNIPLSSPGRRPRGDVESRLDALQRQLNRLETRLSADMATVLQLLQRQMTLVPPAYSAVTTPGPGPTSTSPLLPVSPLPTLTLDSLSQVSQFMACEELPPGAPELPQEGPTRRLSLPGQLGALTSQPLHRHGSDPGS
# [8] = Fraction unbound in human plasma; type: ADME, cell-free
# [9] = Aqueous solubility of compound; type: physicochemical; conditions: buffer
efflux ratio [1],IC50 [2] [nM],IC50 [3] [nM],logD [4],Papp A→B [5] [×10⁻⁶ cm/s],CLint [6] [µL/min/mg],fraction unbound [8],solubility [9] [µM],Compound,IC50 [7] [nM]
0.75,190,8,2.9,67,13,–,–,Cn1cc(Nc2nc(NC3(C)CC3)c3c(=O)n(C)ccc3n2)cn1,–
8.8,46,0.8,2.4,15,57,–,–,CN(C)C(=O)CN1CCC(n2cc(Nc3nc(NC4(C)CC4)c4c(=O)n(C)ccc4n3)cn2)CC1,–
2,180,6,2.5,21,49,–,–,CN1CCC(n2cc(Nc3nc(NC4(C)CC4)c4c(=O)n(-c5cn(C)nn5)ccc4n3)cn2)CC1,–
–,79,3,2,–,12,–,–,C[C@H](F)Cn1ccc2nc(Nc3cnn([C@H]4C[C@H]5C[C@@H]4CN5C)c3)nc(NC3(C)CC3)c2c1=O,–
–,–,–,2.7,–,82,–,–,Cn1cc(Nc2nc(NC3(C)CC3)c3nc(CC#N)ccc3n2)cn1,–
–,50,< 1,2.2,–,88,–,–,C[C@@H]1C[C@@H](n2cc(Nc3nc(NC4(C)CC4)c4c(=O)n(C)ccc4n3)cn2)CCN1C (racemic),–
–,320,16,1.2,–,14,–,–,CN1C[C@H]2C[C@@H]1C[C@@H]2n1cc(Nc2nc(NC3(C)CC3)c3c(=O)n(C)ccc3n2)cn1,–
7.1,90,4,2,12,9.6,–,–,CN1CC2(CC(n3cc(Nc4nc(NC5(C)CC5)c5c(=O)n(CC(F)F)ccc5n4)cn3)C2)C1,–
15,33,1,1.4,5.7,9.7,–,–,CN1CC2(CC(n3cc(Nc4nc(NC5(C)CC5)c5c(=O)n(C)ccc5n4)cn3)C2)C1,–
–,18,0.6,2.7,–,31,–,–,C[C@H]1C[C@@H](n2cc(Nc3nc(NC4(C)CC4)c4c(=O)n(C)ccc4n3)cn2)CCN1C (relative stereo),–
–,170,5,2.8,–,47,–,–,C[C@H](CF)n1ccc2nc(Nc3cnn(C4CCN(C)CC4)c3)nc(NC3(C)CC3)c2c1=O,–
2.1,180,5,2.6,7.9,37,–,–,COC(=O)N1CCN([C@H]2CC[C@H](Nc3nc(Nc4cnn(C)c4)nc4ccc(C)nc34)CC2)CC1,–
5,72,4,2.3,–,38,–,–,CN1CCC(n2cc(Nc3nc(NC4(C)CC4)c4c(=O)n(-c5cncnc5)ccc4n3)cn2)CC1,–
6.1,120,2,2.1,17,10,0.17,890,C[C@H](F)Cn1ccc2nc(Nc3cnn(C4CC5(C4)CN(C)C5)c3)nc(NC3(C)CC3)c2c1=O,4200
4.5,320,11,1.8,16,4.7,–,–,CN1CCC(n2cc(Nc3nc(NC4(C)CC4)c4c(=O)n(-c5nnc[nH]5)ccc4n3)cn2)CC1,–
–,90,3,1.4,–,17,–,–,CN1C[C@@H]2C[C@H]1C[C@@H]2n1cc(Nc2nc(NC3(C)CC3)c3c(=O)n(C)ccc3n2)cn1,–
–,440,23,2.3,–,25,–,–,COC(=O)N1CCN([C@H]2CC[C@H](Nc3nc(Nc4cnn(C)c4)nc4ccn(CC#N)c(=O)c34)CC2)CC1,–

efflux ratio [1],IC50 [2] [nM],IC50 [3] [nM],logD [4],Papp A→B [5] [×10⁻⁶ cm/s],CLint [6] [µL/min/mg],fraction unbound [8],solubility [9] [µM],Compound,IC50 [7] [nM]
–,45,1,3.2,–,98,–,–,CN1CC[C@H](n2cc(Nc3nc(NC4(C)CC4)c4c(=O)n(C)ccc4n3)cn2)[C@@H](F)C1 (racemic),–
–,210,5,3.3,–,32,–,–,CC(C)n1ccc2nc(Nc3cnn(C4CCN(C)CC4)c3)nc(NC3(C)CC3)c2c1=O,–
–,56,2,2.9,–,47,–,–,C[C@H](F)Cn1ccc2nc(Nc3cnn(C4CCN(C)CC4)c3)nc(NC3(C)CC3)c2c1=O,–
–,150,4,3,–,51,–,–,C[C@@H](CF)n1ccc2nc(Nc3cnn(C4CCN(C)CC4)c3)nc(NC3(C)CC3)c2c1=O,–
–,150,4,1.9,–,23,–,–,CN1C[C@H]2C[C@@H]1C[C@@H]2n1cc(Nc2nc(NC3(C)CC3)c3c(=O)n(CC(F)F)ccc3n2)cn1,–
6,49,2,2.5,48,83,–,–,CC(=O)N1CCC(n2cc(Nc3nc(NC4(C)CC4)c4c(=O)n(C)ccc4n3)cn2)CC1,–
3.1,39,1,2.4,17,25,–,–,CN1CCC(n2cc(Nc3nc(NC4(C)CC4)c4c(=O)n(C)ccc4n3)cn2)CC1,–
–,170,3,3.3,–,31,–,–,CN1CCC(n2cc(Nc3nc(NC4(C)CC4)c4c(=O)n(C(F)F)ccc4n3)cn2)CC1,–
28,69,1,2.5,3.3,20,–,–,CN1CCC(n2cc(Nc3nc(NC4(C)CC4)c4c(=O)n(-c5cnn[nH]5)ccc4n3)cn2)CC1,–
–,83,2,2.9,–,50,–,–,CN1CCC(n2cc(Nc3nc(NC4(C)CC4)c4c(=O)n(CC(F)F)ccc4n3)cn2)CC1,–
–,110,21,2.9,–,41,–,–,C[C@@H](F)Cn1ccc2nc(Nc3cnn(C4CCN(C)CC4)c3)nc(NC3(C)CC3)c2c1=O,–
–,74,4,2.5,–,25,–,–,CN1CCC(n2cc(Nc3nc(NC4(C)CC4)c4c(=O)n(C5CC5)ccc4n3)cn2)CC1,–
–,10,0.6,2.7,–,61,–,–,CN1CC[C@H](n2cc(Nc3nc(NC4(C)CC4)c4c(=O)n(C)ccc4n3)cn2)[C@H](F)C1 (racemic),–
3,150,5,2.4,17,22,–,–,COC(=O)N1CCN([C@H]2CC[C@H](Nc3nc(Nc4cnn(C)c4)nc4ccn(C)c(=O)c34)CC2)CC1,–
37,16,1,1.7,4.3,40,–,–,CN(C)CC(=O)N1CCC(n2cc(Nc3nc(NC4(C)CC4)c4c(=O)n(C)ccc4n3)cn2)CC1,–
–,75,2,2.4,–,89,–,–,CN1CC(n2cc(Nc3nc(NC4(C)CC4)c4c(=O)n(C)ccc4n3)cn2)CCC1=O (centres undefined),–
–,500,15,1.7,–,< 3,–,–,CN1CC2(CC(n3cc(Nc4nc(NC5(C)CC5)c5c(=O)n(-c6cn(C)nn6)ccc5n4)cn3)C2)C1,–
